From patent US20210060016A1, “ANTICANCER AGENT” (JAPANESE FOUNDATION FOR CANCER RESEARCH, priority 2017, published 2021)

Assays:
tankyrase 1 = target: T1, tankyrase 1 (Homo sapiens, UniProt O95271); assay: Tankyrase inhibitory activity test (ELISA, auto-poly(ADP-ribosyl)ation), TNKS1; assay type: biochemical; settings: Flag-tagged tankyrase 1 (SAM+PARP), read-out: TNKS1 (inhibitory activity against tankyrase 1), IC50 rating
T1 construct: tankyrase 1 (1,024-1, 327aa, SAM+PARP); made in house; host or cells: cell-free protein expression system
Protocol: (§1) The enzymatic activity of tankyrase 1 and the enzymatic activity of tankyrase 2 were measured by the ELISA method based on assessment of auto-poly(ADP-ribosyl)ation to evaluate the tankyrase inhibitory activity of the compound prepared in each of Compound Examples (test compound) (inhibitory activity against tankyrase 1 (TNKS1) and inhibitory activity against tankyrase 2 (TNKS2)). First, Flag-tagged tankyrase 1 (1,024-1, 327aa, SAM+PARP) and tankyrase 2 (613-1, 116aa, ANK5+SAM+PARP) were synthesized with a cell-free protein expression system, and diluted with a Tris buffer solution (50 mM Tris-HCl (pH 8.0), 150 mM NaCl, 10% glycerol). 50 μL of the diluted tankyrase 1 or tankyrase 2 was added to a plate with an anti-FLAG M2 monoclonal antibody immobilized thereon (Anti-FLAG High-Sensitivity M2-Coated Plate) (Sigma-Aldrich), and the mixture was left to stand overnight at 4° C. Thereafter, the plate was washed four times with a PBS (PBST) buffer containing 0.1% TritonX-100.
(§2) Subsequently, the test compound diluted with an assay buffer (50 mM Tris-HCl (pH 8.0), 4 mM MgCl2, 0.2 mM DTT) (DMSO was used as a control) was added to each well of the plate, and the mixture was left to stand at room temperature for 10 minutes. Thereafter, a biotin-labeled NAD solution (225 μM NAD, 25 μM 6-Biotin-17-NAD (Travigen, Inc.)) was added and mixed as a donor substrate, and the mixture was reacted at 30° C. for 45 minutes. To blank wells was added distilled water instead of the biotin-labeled NAD solution. After the reaction, the plate was washed with a PBST buffer four times. Thereafter, HRP (horseradish peroxidase)-labeled streptavidin (Travigen, Inc.) was diluted with a PBS buffer by 1,000 times, and added to each well, and the mixture was reacted at room temperature for 20 minutes. The plate was washed with a PBST buffer four times, a chemiluminescent substrate solution TACS-Sapphire (Travigen, Inc.) was then added to each well, the mixture was reacted at room temperature for 20 minutes, and thechemiluminescence intensity was measured using a chemiluminescence measuring apparatus.
(§3) The residual enzymatic activity in the presence of the test compound was determined from the following expression. On the basis of the residual enzymatic activity at each of multiple concentrations of the test compound, the enzyme inhibitory activity was calculated in terms of a 50%-inhibition concentration (IC50 value) using data analysis software Origin (LightStone Corp.). Residual activity (%)={(chemiluminescence intensity with test compound added)−(chemiluminescence intensity of blank)}/{(chemiluminescence intensity of control)−(chemiluminescence intensity of blank))

[1] = system: human colorectal cancer cell line COLO-320DM; assay: Cell proliferation inhibitory activity test (Celltiter-Glo); assay type: cell-based; settings: 96 hours, read-out: COLO-320DM (cell proliferation inhibitory activity), G150 rating
Protocol: The cell proliferation inhibitory activity of the compound, which had been prepared in each of Compound Examples, against the human colorectal cancer cell line COLO-320DM was evaluated by Celltiter-Glo Luminescent Cell Viability Assay (Promega Corporation; G7573). COLO-320DM cells were cultured in RPMI-1640 medium containing 2 mM glutamine (Wako Pure Chemical Industries, Ltd; 189-02025) supplemented with 10% fetal bovine serum. The cultured cells were washed with PBS, and then dissociated with trypsin/EDTA, and a cell solution with 3×10^4 cells/mL was prepared.
Subsequently, the cell solution was seeded in a 96-well microplate (Thermo/Nunc Company; 136101) in an amount of 70 μL per well, and cultured overnight under the condition of 37° C. and 5% COz. The next day, a test compound solution obtained by diluting the test compound (DMSO solution) with a cell culture medium (final concentration of DMSO was 1%) was added in an amount of 10 μL per well, and the mixture was reacted under the condition of 37° C. and 5% CO2 for 96 hours (a 1% DMSO solution was used as a control). Thereafter, a Celltiter-Glo Luminescent Cell Viability Assay reagent was added (Promega Corporation; G7573) in an amount of 80 μL per well, the mixture was stirred with a shaker for 2 minutes while light was blocked with an aluminum foil, and the mixture was incubated at room temperature for 10 minutes.
Thereafter, a luminescence signal was measured with a luminometer (Biotech Company; Synergy). The ratio of cell proliferation in each compound addition group to cell proliferation in a control group containing no test compound solution, where cell proliferation in the control group is 100%, was determined, and the value of a compound concentration necessary for suppressing the amount of residual cells to 50% of that in the control (G150) was calculated as the cell proliferation inhibitory activity. For the COLO-320DM (cell proliferation inhibitory activity against COLO-320DM) of each test compound as measured through the above-mentioned method, a test compound having a G150 value of less than 1 μM was rated “A”, a test compound having a G150 value of 1 μM or more and less than 10 μM was rated “B”, a test compound having a G150 value of 10 μM or more was rated “C”, and an unevaluated test compound was designated as “NT”.

tankyrase 2 = target: T2, tankyrase 2 (Homo sapiens, UniProt Q9H2K2); assay: Tankyrase inhibitory activity test (ELISA, auto-poly(ADP-ribosyl)ation), TNKS2; assay type: biochemical; settings: Flag-tagged tankyrase 2 (ANK5+SAM+PARP), read-out: TNKS2 (inhibitory activity against tankyrase 2), IC50 rating
T2 construct: tankyrase 2 (613-1, 116aa, ANK5+SAM+PARP); made in house; host or cells: cell-free protein expression system
Protocol: as §1, §2, §3

T2 sequence (Q9H2K2 613-1166): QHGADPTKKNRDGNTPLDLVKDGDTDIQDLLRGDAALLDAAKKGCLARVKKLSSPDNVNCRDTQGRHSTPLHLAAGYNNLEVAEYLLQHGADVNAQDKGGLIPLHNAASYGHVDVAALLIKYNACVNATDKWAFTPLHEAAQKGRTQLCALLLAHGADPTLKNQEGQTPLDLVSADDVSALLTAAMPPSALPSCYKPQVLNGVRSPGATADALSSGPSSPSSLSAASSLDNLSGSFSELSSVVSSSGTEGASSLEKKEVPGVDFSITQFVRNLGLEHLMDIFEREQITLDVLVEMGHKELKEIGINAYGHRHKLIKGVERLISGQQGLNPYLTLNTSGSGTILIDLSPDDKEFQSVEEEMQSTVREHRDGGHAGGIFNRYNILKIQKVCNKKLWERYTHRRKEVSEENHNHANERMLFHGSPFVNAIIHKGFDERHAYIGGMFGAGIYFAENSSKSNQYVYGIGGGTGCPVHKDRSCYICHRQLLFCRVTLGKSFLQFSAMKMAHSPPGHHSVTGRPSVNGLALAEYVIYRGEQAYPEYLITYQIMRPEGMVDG
T1 sequence (O95271 1024-1327): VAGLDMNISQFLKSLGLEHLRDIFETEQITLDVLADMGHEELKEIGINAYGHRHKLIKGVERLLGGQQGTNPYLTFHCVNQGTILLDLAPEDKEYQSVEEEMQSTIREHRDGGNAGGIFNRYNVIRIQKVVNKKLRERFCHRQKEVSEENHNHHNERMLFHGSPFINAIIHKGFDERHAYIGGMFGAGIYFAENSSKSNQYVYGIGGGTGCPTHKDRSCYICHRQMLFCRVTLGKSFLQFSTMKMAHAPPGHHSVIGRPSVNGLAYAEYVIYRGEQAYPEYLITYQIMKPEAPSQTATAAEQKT

Row | Structure (SMILES) | IC50 (tankyrase 1) | IC50 [1] | IC50 (tankyrase 2)
1 | CN1c2ccccc2C(=O)NC1c1c[nH]nc1-c1cccc(F)c1 (stereo not drawn) [Compound Example 102, 2-[3-(3-Fluorophenyl)-1H-pirazol-4-yl]-1-methyl-2,3-dihydroquinazolin-4-one] | < 20 nM | 1000 to 10000 nM | < 20 nM
2 | CCOc1ccc(-c2n[nH]cc2C2NC(=O)c3cccc(C)c3N2)cc1 (stereo not drawn) [Compound Example 103, 2-[5-(4-Ethoxyphenyl)-1H-pyrazol-4-yl]-8-methyl-2,3-dihydro-1H-quinazolin-4-one] | < 20 nM | 1000 to 10000 nM | < 20 nM
3 | COc1ccc(-c2n[nH]nc2C2NC(=O)c3ccccc3N2C)cc1 (stereo not drawn) [Compound Example 104, 2-[5-(4-Methoxyphenyl)-2H-1,2,3-triazol-4-yl]-1-methyl-2,3-dihydroquinazolin-4-one] | < 20 nM | 1000 to 10000 nM | < 20 nM
4 | COc1ccc(-c2n[nH]nc2C2NC(=O)c3cccc4c3N2CC4)cc1 (stereo not drawn) [Compound Example 106, 11-[5-(4-Methoxyphenyl)-2H-1,2,3-triazol-4-yl]-1,10-diazatricyclo[6.3.1.0^4,12]dodeca-4(12),5,7-trien-9-one] | < 20 nM | 1000 to 10000 nM | < 20 nM
5 | Cc1cccc2c1NC(c1n[nH]nc1-c1ccc(OCC(F)F)cc1)NC2=O (stereo not drawn) [Compound Example 108, 2-[4-[4-(2,2-Difluoroethoxy)phenyl]-2H-1,2,3-triazol-5-yl]-8-methyl-2,3-dihydro-1H-quinazolin-4-one] | < 20 nM | 1000 to 10000 nM | < 20 nM
6 | COc1ccc(-c2n[nH]cc2C2NC(=O)c3ccccc3N2C)cc1 (stereo not drawn) [Compound Example 109, 2-[5-(4-Methoxyphenyl)-1H-pyrazol-4-yl]-1-methyl-2,3-dihydroquinazolin-4-one] | < 20 nM | ≥ 10000 nM | < 20 nM
7 | O=c1[nH]c(N2CCC3(CC2)CN(CCO)c2cc(F)cc(F)c23)nc2c1CCCC2 [Example 1] | < 20 nM | 1000 to 10000 nM | < 20 nM
8 | CN1CCCc2c1nc(N1CCC3(CC1)C(=O)N(C)c1c(OC4CCOC4)ccc(Cl)c13)[nH]c2=O (stereo not drawn) [Example 13] | < 20 nM | < 1000 nM | < 20 nM
9 | COc1ccc(Cl)c2c1N(CC(C)(C)O)C(=O)C21CCN(c2nc3c(c(=O)[nH]2)CCCN3C)CC1 [Example 14] |  | < 1000 nM | 
10 | C[C@@H]1CN(c2cc(F)c3c(c2)N(C)C(=O)C32CCN(c3nc4c(c(=O)[nH]3)CCCN4C)CC2)C[C@H](C)O1 [Example 19] |  | < 1000 nM | 
11 | COC1CCN(c2cc(F)c3c(c2)N(C)C(=O)C32CCN(c3nc4c(c(=O)[nH]3)CCCN4C)CC2)CC1 [Example 20] |  | < 1000 nM | 
12 | CN1CCCc2c1nc(N1CCC3(CC1)C(=O)N(C)c1cc(N4CCC(C#N)CC4)cc(F)c13)[nH]c2=O [Example 21] |  | < 1000 nM | 
13 | CN1CCCc2c1nc(N1CCC3(CC1)C(=O)N(C)c1cc(C4CCC(O)CC4)cc(F)c13)[nH]c2=O (stereo not drawn) [Example 22] | < 20 nM | < 1000 nM | 20 to 200 nM
14 | C[C@@H]1CN(c2cc(F)c3c(c2)N(C)C(=O)C32CCN(c3nc4c(c(=O)[nH]3)CCCN4)CC2)C[C@H](C)O1 [Example 23] | < 20 nM | < 1000 nM | < 20 nM
15 | C[C@@H]1CN(c2cc(F)c3c(c2)N(CC(F)(F)F)C(=O)C32CCN(c3nc4c(c(=O)[nH]3)CCCN4)CC2)C[C@H](C)O1 [Example 24] | < 20 nM | < 1000 nM | < 20 nM

Results, then the compound that gave them:

Row | IC50 (tankyrase 1) | IC50 [1] | IC50 (tankyrase 2) | Structure (SMILES)
16 | < 20 nM | < 1000 nM | < 20 nM | COc1ccc(-c2n[nH]nc2C2NC(=O)c3cccc(C)c3N2)cc1 (stereo not drawn) [Compound Example 105, 2-[5-(4-Methoxyphenyl)-2H-1,2,3-triazol-4-yl]-8-methyl-2,3-dihydro-1H-quinazolin-4-one]
17 | < 20 nM | < 1000 nM | < 20 nM | [2H]C([2H])([2H])Oc1ccc(-c2n[nH]nc2C2NC(=O)c3cccc(C)c3N2)cc1 (stereo not drawn) [Compound Example 107, 8-Methyl-2-[5-(4-(trideuteriomethoxy)phenyl)-2H-1,2,3-triazol-4-yl]-2,3-dihydro-1H-quinazolin-4-one]
18 |  | < 1000 nM |  | COc1cc(F)c2c(c1)N(CCO)C(=O)C21CCN(c2nc3c(c(=O)[nH]2)CCCN3C)CC1 [Example 2]
19 |  | < 1000 nM |  | CN1CCCc2c1nc(N1CCC3(CC1)C(=O)N(CC#N)c1cc(F)cc(F)c13)[nH]c2=O [Example 3]
20 |  | < 1000 nM |  | COc1cc(F)c2c(c1)N(CC#N)C(=O)C21CCN(c2nc3c(c(=O)[nH]2)CCCN3C)CC1 [Example 4]
21 |  | < 1000 nM |  | CN1CCN(c2cc(F)c3c(c2)N(C)C(=O)C32CCN(c3nc4c(c(=O)[nH]3)CCCN4C)CC2)CC1 [Example 5]
22 |  | < 1000 nM |  | CN1CCCc2c1nc(N1CCC3(CC1)C(=O)N(C)c1cc(OCC4COC4)cc(F)c13)[nH]c2=O [Example 6]
23 |  | < 1000 nM |  | CN1CCCc2c1nc(N1CCC3(CC1)C(=O)N(C)c1cc(OC4CCOCC4)cc(F)c13)[nH]c2=O [Example 7]
24 |  | < 1000 nM |  | CN1CCN(CCOc2cc(F)c3c(c2)N(CC(F)(F)F)C(=O)C32CCN(c3nc4c(c(=O)[nH]3)CCCN4C)CC2)CC1 [Example 8]
25 | < 20 nM | < 1000 nM | < 20 nM | CN1CCCc2c1nc(N1CCC3(CC1)C(=O)N(CC(F)(F)F)c1cc(OCC(=O)O)cc(F)c13)[nH]c2=O [Example 9]
26 |  | < 1000 nM |  | CN1CCCc2c1nc(N1CCC3(CC1)C(=O)N(CC(F)(F)F)c1cc(OCc4nnn[nH]4)cc(F)c13)[nH]c2=O [Example 10]
27 |  | < 1000 nM |  | CN1CCCc2c1nc(N1CCC3(CC1)C(=O)N(C)c1cc(N4CCC(C(=O)O)CC4)cc(F)c13)[nH]c2=O [Example 11]
28 |  | < 1000 nM |  | CN1CCCc2c1nc(N1CCC3(CC1)C(=O)N(C)c1cc(N4CC(C(=O)O)C4)cc(F)c13)[nH]c2=O [Example 12]
29 |  | < 1000 nM |  | CN1CCCc2c(O)nc(N3CCC4(CC3)C(=O)N(CC(C)(C)O)c3cccc(F)c34)nc21 [Example 15]
30 |  | < 1000 nM |  | CN1CCCc2c(O)nc(N3CCC4(CC3)OC(=O)c3cc(-c5cnn(C)c5)cc(F)c34)nc21 [Example 16]
31 |  | < 1000 nM |  | CN1CCCc2c1nc(N1CCC3(CC1)C(=O)N(C)c1cc(N4CCN(S(C)(=O)=O)CC4)cc(F)c13)[nH]c2=O [Example 17]
32 |  | < 1000 nM |  | COC(=O)N1CCN(c2cc(F)c3c(c2)N(C)C(=O)C32CCN(c3nc4c(c(=O)[nH]3)CCCN4C)CC2)CC1 [Example 18]
